# “And” between values parts separate entries of the source, which are not always exact repeats. Equal entries are not always repeated.
# Assay: CNS penetration: total and unbound drug concentrations in tumor regions, CSF and plasma (LC-MS/MS, equilibrium dialysis);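 also: drug levels in patient tumor tissue from contrast-enhancing and non-enhancing regions sampled under MRI-guided neuronavigation, with plasma and CSF drawn during surgical resection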
# Conditions: for Everolimus.CSF / Everolimus.Enhancing.tumor / Everolimus.Non-enhancing.tumor / Everolimus.Plasma.conc / Everolimus.Unbound.enhancing / Everolimus.Unbound.non-enhancing / Everolimus.Unbound.plasma: per patient
# [1] = Level 0: Ribociclib 400mg QD + Everolimus 2.5mg QD, sampling 1-3 Hours
# [2] = Level 0: Ribociclib 400mg QD + Everolimus 2.5mg QD, sampling 7-9 Hours
# [3] = Level 0: Ribociclib 400mg QD + Everolimus 2.5mg QD, sampling 23-25 Hours
# [4] = Level 1: Ribociclib 600mg QD + Everolimus 2.5mg QD, sampling 1-3 Hours
# [5] = Level 1: Ribociclib 600mg QD + Everolimus 2.5mg QD, sampling 7-9 Hours
# [6] = Level 2: Ribociclib 600mg QD + Everolimus 5mg QD, sampling 7-9 Hours
# [7] = Level 3: Ribociclib 600mg QD + Everolimus 10mg QD, sampling 7-9 Hours
# [8] = Level 4: Ribociclib 600mg QD + Everolimus 50mg once on Day 5, sampling 7-9 Hours
# [9] = Level 5: Ribociclib 600mg QD + Everolimus 60mg once on Day 5, sampling 7-9 Hours
smiles,measurement,setting,value
"CO[C@H]1C[C@@H]2CC[C@@H](C)[C@@](O)(O2)C(=O)C(=O)N2CCCC[C@H]2C(=O)O[C@H]([C@H](C)C[C@@H]2CC[C@@H](OCCO)[C@H](OC)C2)CC(=O)[C@H](C)/C=C(\C)[C@@H](O)[C@@H](OC)C(=O)[C@H](C)C[C@H](C)/C=C/C=C/C=C/1C [Everolimus, everolimus]","Total everolimus, CSF, MAX",2.5 mg QD 5 days,0.4 nM
same,"Total everolimus, CSF, MIN",2.5 mg QD 5 days,BLQ
same,"Total everolimus, Enhancing tumor, MIN",2.5 mg QD 5 days,BLQ
same,"Total everolimus, Non-enhancing tumor, MIN",2.5 mg QD 5 days,BLQ
same,"Total everolimus, CSF, MAX",5 mg QD 5 days,BLQ
same,"Total everolimus, CSF, MED",5 mg QD 5 days,BLQ
same,"Total everolimus, CSF, MIN",5 mg QD 5 days,BLQ
same,"Total everolimus, CSF, MED",10 mg QD 5 days,1.4 nM
same,"Total everolimus, CSF, MIN",10 mg QD 5 days,BLQ
same,"Total everolimus, Enhancing tumor, MIN",10 mg QD 5 days,BLQ
same,"Total everolimus, CSF, MIN",50 mg single dose,BLQ
same,"Total everolimus, Non-enhancing tumor, MIN",50 mg single dose,BLQ
same,"Total everolimus, CSF, MAX",60 mg single dose,0.57 nM
same,"Total everolimus, CSF, MED",60 mg single dose,0.57 nM
same,"Total everolimus, CSF, MIN",60 mg single dose,BLQ
same,"Total everolimus, CSF, MAX",70 mg single dose,11.4 nM
same,"Total everolimus, CSF, MED",70 mg single dose,6.35 nM
same,"Total everolimus, CSF, MIN",70 mg single dose,BLQ
same,Everolimus.CSF,[1],BLQ
same,Everolimus.Enhancing.tumor,[1],5.92E-03 and 4.32E-03
same,Everolimus.Non-enhancing.tumor,[1],2.88E-03 and BLQ
same,Everolimus.Plasma.conc,[1],0.02558 and 0.00883
same,Everolimus.Unbound.enhancing,[1],BLQ
same,Everolimus.Unbound.non-enhancing,[1],BLQ
same,Everolimus.Unbound.plasma,[1],BLQ
same,Everolimus.CSF,[2],BLQ
same,Everolimus.Enhancing.tumor,[2],BLQ and 1.69E-02
same,Everolimus.Non-enhancing.tumor,[2],BLQ and 2.24E-03
same,Everolimus.Plasma.conc,[2],0.00955 and 0.00618
same,Everolimus.Unbound.enhancing,[2],BLQ
same,Everolimus.Unbound.non-enhancing,[2],BLQ
same,Everolimus.Unbound.plasma,[2],BLQ
same,Everolimus.CSF,[3],BLQ
same,Everolimus.Enhancing.tumor,[3],BLQ and 4.44E-03
same,Everolimus.Non-enhancing.tumor,[3],BLQ and 5.84E-03
same,Everolimus.Plasma.conc,[3],0.00384 and 0.00714
same,Everolimus.Unbound.enhancing,[3],BLQ
same,Everolimus.Unbound.non-enhancing,[3],BLQ
same,Everolimus.Unbound.plasma,[3],BLQ
same,Everolimus.CSF,[4],3.90E-04
same,Everolimus.Enhancing.tumor,[4],4.40E-03
same,Everolimus.Non-enhancing.tumor,[4],4.72E-03
same,Everolimus.Plasma.conc,[4],0.01738
same,Everolimus.Unbound.enhancing,[4],BLQ
same,Everolimus.Unbound.non-enhancing,[4],BLQ
same,Everolimus.Unbound.plasma,[4],BLQ
same,Everolimus.CSF,[5],2.70E-04 and 3.30E-04
same,Everolimus.Enhancing.tumor,[5],8.34E-02 and 9.20E-03
same,Everolimus.Non-enhancing.tumor,[5],3.53E-02 and 8.80E-03
same,Everolimus.Plasma.conc,[5],0.03462 and 0.01401
same,Everolimus.Unbound.enhancing,[5],BLQ
same,Everolimus.Unbound.non-enhancing,[5],BLQ
same,Everolimus.Unbound.plasma,[5],BLQ
same,Everolimus.CSF,[6],BLQ
same,Everolimus.Enhancing.tumor,[6],3.98E-02 and 1.11E-02 and 1.66E-02
same,Everolimus.Non-enhancing.tumor,[6],2.02E-02 and 9.20E-03 and 1.03E-02
same,Everolimus.Plasma.conc,[6],0.0225 and 0.0084 and 0.0281
same,Everolimus.Unbound.enhancing,[6],BLQ
same,Everolimus.Unbound.non-enhancing,[6],BLQ
same,Everolimus.Unbound.plasma,[6],BLQ
same,Everolimus.CSF,[7],BLQ and 2.50E-03 and 3.00E-04
same,Everolimus.Enhancing.tumor,[7],6.13E-02 and 2.67E-02 and BLQ
same,Everolimus.Non-enhancing.tumor,[7],3.33E-02 and 4.50E-03 and 5.00E-03
same,Everolimus.Plasma.conc,[7],0.0311 and 0.0616 and 0.0431
same,Everolimus.Unbound.enhancing,[7],BLQ
same,Everolimus.Unbound.non-enhancing,[7],BLQ
same,Everolimus.Unbound.plasma,[7],BLQ
same,Everolimus.CSF,[8],BLQ and 3.70E-04 and 1.50E-03
same,Everolimus.Enhancing.tumor,[8],5.16E-02 and 5.45E-02 and 7.41E-02
same,Everolimus.Non-enhancing.tumor,[8],2.51E-02 and 6.30E-03
same,Everolimus.Plasma.conc,[8],0.07949 and 0.06123 and 0.063
same,Everolimus.Unbound.enhancing,[8],BLQ
same,Everolimus.Unbound.non-enhancing,[8],BLQ
same,Everolimus.Unbound.plasma,[8],4.59E-04 and 2.99E-04 and 3.00E-04
same,Everolimus.CSF,[9],5.70E-04 and BLQ
same,Everolimus.Enhancing.tumor,[9],8.76E-02 and 3.04E-02 and 9.84E-03
same,Everolimus.Non-enhancing.tumor,[9],3.61E-02 and 1.38E-02 and 1.13E-02
same,Everolimus.Plasma.conc,[9],0.07053 and 0.09226 and 0.06809
same,Everolimus.Unbound.enhancing,[9],BLQ
same,Everolimus.Unbound.non-enhancing,[9],BLQ

# Reference: article PMC13070491, “Single-nucleus transcriptomics, pharmacokinetics, and pharmacodynamics of CDK4/6 and mTOR inhibition in a Phase 0/1 trial of recurrent high-grade glioma” (Neuro-Oncology, 2025)
